These results are taken from US12357641B2, “Identification of oleanolic acid and plant extract for glucose-6-phosphate dehydrogenase-related disorders including Bag3opathy” (Hong Kong Baptist University, priority 2022, dated 2025).

In experiment [1] the test system is G6PD. The experiment in a line: Oleanolic acid treatment in Bag3opathy patient: serum G6PD protein by ELISA. It counts as in vivo, human. To be noted: oral capsules 180 mg/day for three months, before treatment 0.09 ng/mL, normal girls 7.25±9.38 ng/mL. As to the method:
The concentration of G6P in serum was determined by High Sensitivity G6P Assay Kit (Catalog #: K687-100, BioVision, Inc. USA) following the manufacturer's instruction. Briefly, a volume of 200 μL of samples was deproteinized with 10 kDa MWCO spin filter prior to the reaction. After adding 50 μL of the appropriate reaction mix into each 50 μL of filtrate, the reaction was incubated for 5 min at 37° C. and protected from light. Finally, the concentration of G6P was calculated according the fluorescence intensity (λex=535/λem=587) measured by fluorometer (EnVision 2104 Multilabel Reader, PerkinElmer, USA). The serum levels of G6PD (SEA716Hu, Cloud-Clone Corp), GPI, catalase (CAT), thioredoxin (TXN), and superoxide dismutase 1 (SOD1) were measured by Elisa Kits purchased from Cloud-Clone Crop Inc. (USA). Serum samples were diluted 100 folds in PBS for measurements of CAT and TXN, and were diluted 800 folds for SOD1 test. The activity of PGM was determined by Colorimetric Assay Kit from BioVision (Inc. USA). Samples were prepared and measured at 450 nm by Elisa reader (Benchmark Plus, BioRad, USA) depending on the manufacturer's instructions.
The Bag3opathy patient (body weight of patient: 40 kg) was orally administrated with Chinese medicine supplements containing oleanolic acid (180 mg per day) to evaluate the effects of treatment on BAG3 associated MFM for 3 months. […]

Experiment [2] relates to G6PD. The experiment is described as follows: Oleanolic acid treatment in normal mice: G6PD protein by ELISA in serum, heart muscle and skeletal muscle. Type of experiment: in vivo, mouse. To be noted: for G6PD protein in heart muscle: control 0.36±0.26 ng/mg; for G6PD protein level in serum: control 1.79±0.99 ng/mL. As to the method: BAG3 P209-KI mice were reproduced by mating between the P209L/+ male and female mice. All mice were maintained with free access to food and water in plastic cages at 22±2° C. and kept on a 12-h light/dark cycle. Animal welfare and experimental procedures were carried out in accordance with the related ethical regulations of Yunnan Minzu University. […] Heart muscle and skeletal muscle samples were obtained after cardiac perfusion with cold PBS. Muscle tissues were lysed into homogenate in ice-cold lysis buffer (150 mM NaCl, 50 mM Tris, pH7.5, 1% NP-40, 0.1% sodium deoxycholate) plus 1 mM PMSF. Samples were then sonicated on ice and centrifuged at 10,000 g for 5 min. The concentration of G6PD in serum, heart muscle, and skeletal muscle were determined by G6PD Elisa Kit (Catalog #: SEA716Mu, Cloud-Clone Corp. USA) following the manufacturer's instruction. The plate was read at 450 nm by the microplate reader (iMark, Biorad, USA). The concentration of the total protein from tissue samples was determined by the spectrophotometer (NanoDrop One, Thermo Scientific, USA).
Seventeen normal male C57BL/6 mice, 6-8 weeks of age, were purchased from Hunan SJA Laboratory Animal Co., Ltd (Changsha, China). They were maintained with free access to food and water in plastic cages at 22±2° C. and kept on a 12-h light/dark cycle. Animal welfare and experimental procedures were carried out in accordance with the related ethical regulations of Yunnan Minzu University. Mice were randomly divided into one control group (n=6) and two dug treatment groups (n=5, 6). Oleanolic acid was suspended in 0.5% carboxymethylcellulose sodium (CMC-Na) solution with the concentration of 10 and 2.5 mg/mL. In the control and drug treatment groups, 0.5% CMC-Na and oleanolic acid (50, 200 mg/kg/day) was given orally for 10 days, respectively. On the 11th day, mice were sacrificed, and the serum and tissue samples were prepared and detected as the method described previously.

Experiment [3] deals with creatine kinase-MB (CK-MB). The experiment in a line: Oleanolic acid treatment in Bag3opathy patient: creatine kinase-MB (cardiac marker) in blood. Type of experiment: in vivo, human. To be noted: oral capsules 180 mg/day for three months, before treatment 24 U/L. As to the method:
The Bag3opathy patient (body weight of patient: 40 kg) was orally administrated with Chinese medicine supplements containing oleanolic acid (180 mg per day) to evaluate the effects of treatment on BAG3 associated MFM for 3 months. 3 mL serum was collected for analysis before and after the treatment. The trial was approved the Ethics Committee of Hong Kong Baptist University (HASC/15-16/0268) according to the principles of the Declaration of Helsinki, and obtained the consent form.

As for `CC1(C)CC[C@]2(C(=O)O)CC[C@]3(C)C(=CC[C@@H]4[C@@]5(C)CC[C@H](O)C(C)(C)[C@@H]5CC[C@]43C)[C@@H]2C1` [oleanolic acid, Oleanolic acid], the “serum G6PD protein after treatment” value with G6PD [1] was determined as 2.43 ng/mL. In addition, the “G6PD protein in skeletal muscle” value with G6PD [2] (oral 50 mg/kg daily for ten days, control 0.11±0.04 ng/mg, p=0.035) came out at 0.19 ± 0.04 ng/mg. Further, the “G6PD protein in heart muscle” value came to 0.54 ± 0.32 ng/mg in the experiment on G6PD [2] (oral 50 mg/kg daily for ten days, p=0.36) and 0.93 ± 0.43 ng/mg with G6PD [2] (oral 200 mg/kg daily for ten days, p=0.011). For the same molecule, the “G6PD protein level in serum” value with G6PD [2] (oral 50 mg/kg daily for ten days, p=0.140) was found to be 3.74 ± 1.91 ng/mL; in the experiment with G6PD [2] (oral 200 mg/kg daily for ten days, p=0.049) it was 4.47 ± 3.07 ng/mL. The “creatine kinase-MB (CK-MB) after treatment” value in experiment [3] was determined as 16 U/L.
